# Measured values as given in US7125542B2, “Methods and compositions for treating conditions of the eye” (Massachusetts Eye and Ear Infirmary, priority 2000, dated 2006).
# Read-outs that look alike come from different tables or passages of the source.
# Assays:
# [1] = system: Caspase 3-like (DEVD-ase) protease; test: Caspase 3-like (DEVD-ase) activation, Ac-DEVD-AFC cleavage in BRCE lysates; format: cell-based, Bovine
# Description: In order to investigate the role of apoptosis in Lu-Tex/PDT mediated cell death in BRCE and RPE, the activation of Caspase 3-like (DEVD-ase) protease, a hallmark of apoptosis (Nicholson (1997) TIBS 22: 299–306), was monitored. The kinetics of activation were measured spectrofluorometrically by assaying the hydrolysis of a substrate that can be cleaved only by the caspase 3-like protease family members.
# Various times after Lu-Tex/PDT, 10^6 cells were collected by centrifugation, and the washed cell pellet resuspended in 500 μl of ice-cold lysis buffer (pH 7.5) containing 10 mM Tris, 130 mM NaCl, 1% Triton X-100, 10 mM NaF, 10 mM NaPi, 10 mM NaPPi, 16 μg/ml benzamidine, 10 μg/ml phenanthroline, 10 μg/ml aprotinin, 10 μg/ml leupeptin, 10 μg/ml pepstatin and 4 mM 4(2-aminoethyl)-benzene-sulfanyl fluoride hydrochloride (AEBSF). Cellular lysates were stored in aliquots at −84° C. for later protease activity assay or Western blot analysis. A protein assay (Coomassie Plus protein assay (Pierce, Rockford, Ill.) with a bovine serum albumin (BSA) standard was used to assay protein concentration in cell extract.
# (§1) In order to measure protease activity, aliquots containing 50 1 μg of cellular protein were incubated with 14 μM (final concentration N-acetyl (Asp-Glu-Val-Asp (SEQ. ID NO: 3)-(7-amino-4-trifluoromethly coumarin) (Ac-DEVD-AFC); (Pharmingen San Diego, Calif.) in 1 ml protease assay buffer pH 7.2 (20 mM piperazine-N-N^1-bis (2-ethanesulfuric acid) (PIPES), 100 mM NaCl, 10 mM dithiothreitol (DTT), 1 mM EDTA, 0.1%(w/v) 3-[(3-Cholamidopropyl) dimethyl ammonio]-1-propane sulfonate (CHAPS), and 10% sucrose) at 37° C. for 1 hour. Fluorescence was measured using a Perkin-Elmer MPF-44A spectrofluorometer (λexcitation, 400 nm; λemission 505 nm). Cellular protein served as the blank.
# In order to examine the effect of combining angiostatin and Lu-Tex/PDT on DEVD-ase activation in BRCE cells, cells were treated with angiostatin alone, Lu-Tex/PDT alone and angiostatin/Lu-Tex/PDT, following which caspase 3-like activity was assayed as described above. Fluences of 20 and 40 J/cm^2 were used, corresponding to LD100 of combination angiostatin/Lu-Tex/PDT and Lu-Tex/PDT alone respectively. […] As in the case of BRCE cells treated with Lu-Tex/PDT alone, the rate of entry into apoptosis of BRCE cells treated with combination of angiostatin/Lu-Tex/PDT was time-dependent.
# [2] = stock solution of 2 mg/ml, in the dark at 4° C.; cited from earlier work
# [3] = system: Human retinal pigment epithelial (RPE) cells; details: cited from earlier work
# Bcl-2 = test: Western blot of Bcl-2 family members in BRCE cells after Lu-Tex/PDT; format: cell-based, Bovine; details: after Lu-Tex/PDT at LD50
# Description: (§2) In order to evaluate the expression of Bcl-2 family members in BRCE and RPE cells after Lu-Tex/PDT, BRCE and RPE cells were subjected to Lu-Tex/PDT and the resultant cellular lysates subjected to Western blot analysis for detection of the anti-apoptotic Bcl-2, Bcl-xL markers, and the pro-apoptotic Bax and Bak markers.
# (§3) Cell lysates were produced as described in Example 3. Sodium dodecyl sulfate-polyacrylamide gel electrophoresis of proteins was performed with 12% SDS-polyacrylamide gels. All samples were boiled in denaturing sample buffer, and equal amounts of proteins were loaded per lane. Proteins were separated at room temperature under reducing conditions at 120 V. Western blot transfer of separated proteins was performed at room temperature, using polyvinylidene fluoride membranes at 50 mA for 1 hr. To verify equal protein loading, blots were stained with 0.1% ponceau red (Sigma) diluted in 5% acetic acid. Afterwards, blots were blocked for 1 hr in Tris buffered saline (TBS; 10 mM Tris-HCl, pH 7.5, and 150 mM NaCl) containing 5% non-fat dried milk. Next, the membranes were probed with an appropriate dilution (1:250 to 1:1000) of primary antibody in TBS containing 2.5% non-fat dried milk for one and a half hours. Mouse polyclonal antibodies against Bcl-2, Bcl-xL, Bax and Bak were purchased from Pharmingen. After incubation with primary antibody, the blots were washed for 30 minutes with frequent changes of TBS, blocked in 1% non-fat dried milk in TBS for 30 minutes, followed by incubation in a peroxidase-coupled secondary antibody for 1 hour in TBS containing 1% non-fat dried milk. The blots were washed for 1 hour with frequent changes of TBST (TBS, 0.1% Tween). Immunoblot analysis was performed using enhanced chemiluminescence plus Western blotting detection reagents (Amersham, Pharmacia Biotec Piscataway, N.J.) followed by exposure to x-ray film (ML Eastman Kodak, Rochester, N.Y.).
# Bax = test: as above; format: cell-based, Bovine; details: after Lu-Tex/PDT at LD50
# Description: as §2, §3
# [4] = system: Bovine retinal capillary endothelial (BRCE) cells; test: Cell survival, 1-week cell proliferation assay in BRCE cells; format: cell-based; details: for Cellular Survival (%): BRCE
# Description: (§4) Bovine retinal capillary endothelial (BRCE) cells (from Patricia A. D'Amore, Schepens Eye Research Institute, Boston, Mass.) and Human retinal pigment epithelial (RPE) cells (from Anthony P. Adamis, Massachusetts Eye & Ear Infirmary, Boston, Mass.) were grown at 37° C., 5% CO2 in Dulbecco's modified Eagle's medium (DMEM; Sigma, St. Louis, Mo.), 5% heat-inactivated fetal bovine serum (FBS, Gibco, Grand Island, N.Y.), supplemented with L-glutamine, penicillin, and streptomycin (Gibco Grand Island, N.Y.). Lutetium Texaphyrin (Lu-Tex) was obtained from Alcon Laboratories, Inc. (Fort Worth, Tex.) as a stock solution of 2 mg/ml, stable in the dark at 4° C., and used in accordance with the manufacturer's guidelines.
# (§5) Cell survival was measured using a cell proliferation assay. Briefly, BRCE or RPE cells were plated at a density of 10^5 cells in DMEM with 5% FBS and incubated at 37° C. in 5% CO2. After eighteen hours, and if desired, recombinant human angiostatin (Calbiochem, La Jolla, Calif.) was added at a concentration of 500 ng/ml. Eighteen hours later, the medium was removed and replaced by 3 μg/ml Lu-Tex in complete media. Thirty minutes later, the cultures were exposed to timed irradiation using an argon/dye Photocoagulator at 732 nm and laser delivery system (model 920, Coherent Inc., Palo Alto, Calif.). Irradiance was delivered at a rate of […] to give a total dose of 5 to 20 J/cm^2, and irradiation time ranged from 7 to 28 minutes. After irradiation, the medium was removed and replaced with complete medium. Cultures were returned to the incubator for 7 days, after which cells were dispersed in trypsin, counted in a masked fashion, and the surviving fraction determined. Cultures were photographed at various times following Lu-Tex/PDT using a 16×-0.32 numeric aperture on a phase contrast inverted microscope (Diaphot, Nikon, Melville, N.Y.).
# In order to assess the effect of combining angiostatin to Lu-Tex/PDT on BRCE cell survival, cells were pre-treated for 18 hours with 500 ng/ml angiostatin after which they were treated with Lu-Tex/PDT at various fluences. Cellular survival was measured by the 1-week cellular proliferation assay.
# RPE cells = test: Cellular morphology following PDT, RPE cells; format: cell-based, Human; details: after treatment
# Description: (§6) Experiments were performed to establish how PDT effects the cellular morphology of BRCE and RPE cells. The cells were treated and exposed to PDT either alone or in combination with angiostatin as described in Example 1. Although cells appeared severely damaged immediately after PDT, subsequent recovery occurred in certain circumstances. One week after PDT, some cells disappeared while those that remained regained their spindle shape and their ability to attach.
# [5] = system: Caspase 3-like (DEVD-ase) protease; test: Caspase 3-like (DEVD-ase) activation, Ac-DEVD-AFC cleavage in RPE lysates; format: cell-based, Human; details: RPE, 10, 20 and 40 J/cm^2
# Description: In order to investigate the role of apoptosis in Lu-Tex/PDT mediated cell death in BRCE and RPE, the activation of Caspase 3-like (DEVD-ase) protease, a hallmark of apoptosis (Nicholson (1997) TIBS 22: 299–306), was monitored. The kinetics of activation were measured spectrofluorometrically by assaying the hydrolysis of a substrate that can be cleaved only by the caspase 3-like protease family members. […]
# as §1, with “Cellular protein served as the blank.” left out
# Bcl-xL = test: Western blot of Bcl-2 family members in RPE cells after Lu-Tex/PDT; format: cell-based, Human; details: up to 4 hours post-PDT, then plateau
# Description: as §2
# (§7) Cell lysates were produced as described in Example 3. Sodium dodecyl sulfate-polyacrylamide gel electrophoresis of proteins was performed with 12% SDS-polyacrylamide gels. All samples were boiled in denaturing sample buffer, and equal amounts of proteins were loaded per lane. Proteins were separated at room temperature under reducing conditions at 120 V. Western blot transfer of separated proteins was performed at room temperature, using polyvinylidene fluoride membranes at 50 mA for 1 hr. To verify equal protein loading, blots were stained with 0.1% ponceau red (Sigma) diluted in 5% acetic acid. Afterwards, blots were blocked for 1 hr in Tris buffered saline (TBS; 10 mM Tris-HCl, pH 7.5, and 150 mM NaCl) containing 5% non-fat dried milk. Next, the membranes were probed with an appropriate dilution (1:250 to 1:1000) of primary antibody in TBS containing 2.5% non-fat dried milk for one and a half hours. Mouse polyclonal antibodies against Bcl-2, Bcl-xL, Bax and Bak were purchased from Pharmingen. […]
# Bak = test: as above; format: cell-based, Human; details: up to 4 hours post-PDT, then decline
# Description: as §2, §7
# [6] = typical; cited from earlier work
# [7] = system: Human retinal pigment epithelial (RPE) cells; test: Cell survival, 1-week cell proliferation assay in RPE cells; format: cell-based; details: for Cellular Survival (%): RPE
# Description: as §4, §5
# BRCE cells = test: Cellular morphology following PDT, BRCE cells; format: cell-based, Bovine; details: one week after treatment
# Description: as §6
# [8] = fluence 5 J/cm^2, 3 μg/ml Lu-Tex, angiostatin 500 ng/ml where used, 7 days, mean ± SD
# [9] = fluence 10 J/cm^2, 3 μg/ml Lu-Tex, angiostatin 500 ng/ml where used, 7 days, mean ± SD
# [10] = fluence 20 J/cm^2, 3 μg/ml Lu-Tex, angiostatin 500 ng/ml where used, 7 days, mean ± SD
# [11] = angiostatin alone 500 ng/ml, no PDT
compound,measurement,setting,value
"CC(=O)[O-].CC(=O)[O-].CCc1c(CC)c2cc3nc(cnc4cc(OCCOCCOCCOC)c(OCCOCCOCCOC)cc4ncc4nc(cc1[n-]2)C(CCCO)=C4C)C(C)=C3CCCO.O.[Lu+3] [Lu-Tex/PDT, Lutetium Texaphyrin]",increase of caspase 3-like activation in BRCE cells as compared to RPE cells,[1]; 10 J/cm^2 and 20 J/cm^2,about 50%
same,caspase 3-like activation levels in BRCE relative to RPE cells,[1]; 40 J/cm^2,5 fold
same,"caspase 3-like (DEVD-ase) activity, Lu-Tex/PDT (40 J/cm^2) compared with angiostatin/Lu-Tex/PDT (20 J/cm^2)",[1]; BRCE,increased levels
same,earliest elevation of caspase 3-like activity post-Lu-Tex/PDT,"[1]; BRCE, 10, 20 and 40 J/cm^2",10 min
same,time of peak caspase 3-like activity post-Lu-Tex/PDT,"[1]; BRCE, 10, 20 and 40 J/cm^2",40 min
same,stability of stock solution,[2],stable
same,RPE cell survival,"[3]; fluence 20 J/cm^2, previous studies",about 43%
same,RPE cell survival,"[3]; fluence 40 J/cm^2, previous studies",~21%
same,Bcl-2 protein level,Bcl-2,downregulation
same,Bax protein level,Bax,upregulation
same,cellular ratio of Bax to Bcl-2 protein,Bax,increase
same,Cellular Survival (%),[4]; [8],79.13 ± 4.05 (5J/cm^2) %
same,Cellular Survival (%),[4]; [9],53.17 ± 0.32 (10J/cm^2) %
same,Cellular Survival (%),[4]; [10],33.34 ± 2.26 (20J/cm^2) %
same,dark toxicity,"[4]; at the concentration of Lu-Tex used (3 μg/ml), no light",no dark toxicity was observed
same,lethality of BRCE cells,[4]; fluence 40 J/cm^2,100%
same,lethal dose (LD100) for BRCE cells,[4]; fluence of light,40 J/cm^2
same,cellular morphology / fate of RPE cells,RPE cells,appeared unchanged
same,earliest elevation of caspase 3-like activity post-Lu-Tex/PDT,[5],10 min
same,time of peak caspase 3-like activity post-Lu-Tex/PDT,[5],40 min
same,Bcl-xL protein level,Bcl-xL,upregulation
same,Bak protein level,Bak,upregulation
same,persistence in the target neovasculature,[6],about twenty
same,time until present within the target neovasculature post administration,[6],one
same,Cellular Survival (%),[7]; [8],94.55 ± 1.60 (5J/cm^2) %
same,Cellular Survival (%),[7]; [9],59.59 ± 3.56 (10J/cm^2) %
same,Cellular Survival (%),[7]; [10],53.47 ± 3.18 (20J/cm^2) %
same,improvement of RPE cell survival post-PDT,[7]; light dose 20 J/cm^2 (instead of 40 J/cm^2),20%
C=Cc1c(C)c2cc3nc(c(CC(=O)N[C@@H](CC(=O)O)C(=O)O)c4[nH]c(cc5nc(cc1[nH]2)C(C)=C5CC)c(C)c4C(=O)O)[C@@H](CCC(=O)O)[C@@H]3C [N-aspartyl chlorin e6],persistence in the target neovasculature,[6],about twenty
same,time until present within the target neovasculature post administration,[6],one
O=C([O-])c1c(Cl)c(Cl)c(Cl)c(Cl)c1-c1c2cc(I)c(=O)c(I)c-2oc2c(I)c([O-])c(I)cc12.[Na+].[Na+] [rose bengal],persistence in the target neovasculature,[6],about ten
same,time until present within the target neovasculature post administration,[6],one
Angiostatin,cellular morphology / fate of BRCE cells,BRCE cells,continued to proliferate and reached confluence
same,Cellular Survival (%),[4]; [11],87.39%
same,killing of BRCE cells,"[4]; angiostatin alone, 500 ng/ml",12.61%
same,cellular morphology / fate of RPE cells,RPE cells,continued to proliferate and reached confluence
same,Cellular Survival (%),[7]; [11],99.09%
same,cytotoxicity on human RPE cells,[7]; human angiostatin alone,no cytotoxicity was observed
benzoporphyrin derivative,persistence in the target neovasculature,[6],about fifty
same,time until present within the target neovasculature post administration,[6],one
